Where two headings read alike, the source gives them in different places.
Legend:
JAK1 = JAK1 (Homo sapiens (Human), UniProt P23458); experiment: Biochemical JAK kinase assay (LanthaScreen), JAK1; conditions: converted from pIC50 using Cheng-Prusoff; ATP 25 μM
Procedure: (§1) Assay 1: Biochemical JAK Kinase Assays
(§2) A panel of four LanthaScreen JAK biochemical assays (JAK1, 2, 3 and Tyk2) were carried in a common kinase reaction buffer (50 mM HEPES, pH 7.5, 0.01% Brij-35, 10 mM MgCl2, and 1 mM EGTA). Recombinant GST-tagged JAK enzymes and a GFP-tagged STAT1 peptide substrate were obtained from Life Technologies.
(§3) Serially diluted compounds were pre-incubated with each of the four JAK enzymes and the substrate in white 384-well microplates (Corning) at ambient temperature for 1 h. ATP was subsequently added to initiate the kinase reactions in 10 μL total volume, with 1% DMSO. […] Kinase reactions were allowed to proceed for 1 hour at ambient temperature before a 10 μL preparation of EDTA (10 mM final concentration) and Tb-anti-pSTAT1 (pTyr701) antibody (Life Technologies, 2 nM final concentration) in TR-FRET dilution buffer (Life Technologies) was added. The plates were allowed to incubate at ambient temperature for 1 h before being read on the EnVision reader (Perkin Elmer). Emission ratio signals (520 nm/495 nm) were recorded and utilized to calculate the percent inhibition values based on DMSO and background controls.
(§4) For dose-response analysis, percent inhibition data were plotted vs. compound concentrations, and IC50 values were determined from a 4-parameter robust fit model with the Prism software (GraphPad Software). Results were expressed as pIC50 (negative logarithm of IC50) and subsequently converted to pKi (negative logarithm of dissociation constant, Ki) using the Cheng-Prusoff equation.

JAK2 = JAK2 (Homo sapiens (Human), UniProt O60674); experiment: Biochemical JAK kinase assay (LanthaScreen), JAK2; conditions: converted from pIC50 using Cheng-Prusoff; ATP 3 μM
JAK2, sequence (O60674 whole entry): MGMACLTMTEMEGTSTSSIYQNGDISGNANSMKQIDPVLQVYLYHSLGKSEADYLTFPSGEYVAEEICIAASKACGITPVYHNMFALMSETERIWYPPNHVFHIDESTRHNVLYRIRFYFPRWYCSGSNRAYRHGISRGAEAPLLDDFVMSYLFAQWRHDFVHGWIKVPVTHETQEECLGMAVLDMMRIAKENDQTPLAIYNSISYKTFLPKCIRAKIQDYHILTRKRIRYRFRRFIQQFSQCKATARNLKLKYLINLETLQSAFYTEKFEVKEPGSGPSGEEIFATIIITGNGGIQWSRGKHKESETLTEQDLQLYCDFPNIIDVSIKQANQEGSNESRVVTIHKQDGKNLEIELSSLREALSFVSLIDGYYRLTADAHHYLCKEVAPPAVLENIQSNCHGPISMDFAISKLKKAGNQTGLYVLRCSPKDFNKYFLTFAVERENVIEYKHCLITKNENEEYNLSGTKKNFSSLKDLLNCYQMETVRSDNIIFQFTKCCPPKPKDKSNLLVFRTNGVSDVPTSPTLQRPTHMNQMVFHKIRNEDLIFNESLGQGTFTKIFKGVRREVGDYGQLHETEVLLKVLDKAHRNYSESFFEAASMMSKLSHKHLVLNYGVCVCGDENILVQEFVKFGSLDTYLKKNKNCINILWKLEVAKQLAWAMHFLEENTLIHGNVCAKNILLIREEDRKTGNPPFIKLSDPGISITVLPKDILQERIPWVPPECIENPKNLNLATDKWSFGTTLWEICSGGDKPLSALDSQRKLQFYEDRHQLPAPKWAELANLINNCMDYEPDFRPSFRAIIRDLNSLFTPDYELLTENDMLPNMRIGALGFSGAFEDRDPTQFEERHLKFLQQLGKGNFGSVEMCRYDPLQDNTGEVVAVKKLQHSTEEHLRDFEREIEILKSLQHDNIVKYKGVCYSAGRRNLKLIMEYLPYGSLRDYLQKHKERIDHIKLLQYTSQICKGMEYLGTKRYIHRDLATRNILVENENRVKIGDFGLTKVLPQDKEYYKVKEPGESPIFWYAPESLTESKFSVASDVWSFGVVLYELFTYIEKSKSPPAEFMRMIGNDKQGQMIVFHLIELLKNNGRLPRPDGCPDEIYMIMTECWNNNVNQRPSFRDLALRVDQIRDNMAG
Procedure: as §1, §2, §3, §4

JAK3 = JAK3 (Homo sapiens (Human), UniProt P52333); experiment: Biochemical JAK kinase assay (LanthaScreen), JAK3; conditions: converted from pIC50 using Cheng-Prusoff; ATP 1.6 μM
JAK3, sequence (P52333 whole entry): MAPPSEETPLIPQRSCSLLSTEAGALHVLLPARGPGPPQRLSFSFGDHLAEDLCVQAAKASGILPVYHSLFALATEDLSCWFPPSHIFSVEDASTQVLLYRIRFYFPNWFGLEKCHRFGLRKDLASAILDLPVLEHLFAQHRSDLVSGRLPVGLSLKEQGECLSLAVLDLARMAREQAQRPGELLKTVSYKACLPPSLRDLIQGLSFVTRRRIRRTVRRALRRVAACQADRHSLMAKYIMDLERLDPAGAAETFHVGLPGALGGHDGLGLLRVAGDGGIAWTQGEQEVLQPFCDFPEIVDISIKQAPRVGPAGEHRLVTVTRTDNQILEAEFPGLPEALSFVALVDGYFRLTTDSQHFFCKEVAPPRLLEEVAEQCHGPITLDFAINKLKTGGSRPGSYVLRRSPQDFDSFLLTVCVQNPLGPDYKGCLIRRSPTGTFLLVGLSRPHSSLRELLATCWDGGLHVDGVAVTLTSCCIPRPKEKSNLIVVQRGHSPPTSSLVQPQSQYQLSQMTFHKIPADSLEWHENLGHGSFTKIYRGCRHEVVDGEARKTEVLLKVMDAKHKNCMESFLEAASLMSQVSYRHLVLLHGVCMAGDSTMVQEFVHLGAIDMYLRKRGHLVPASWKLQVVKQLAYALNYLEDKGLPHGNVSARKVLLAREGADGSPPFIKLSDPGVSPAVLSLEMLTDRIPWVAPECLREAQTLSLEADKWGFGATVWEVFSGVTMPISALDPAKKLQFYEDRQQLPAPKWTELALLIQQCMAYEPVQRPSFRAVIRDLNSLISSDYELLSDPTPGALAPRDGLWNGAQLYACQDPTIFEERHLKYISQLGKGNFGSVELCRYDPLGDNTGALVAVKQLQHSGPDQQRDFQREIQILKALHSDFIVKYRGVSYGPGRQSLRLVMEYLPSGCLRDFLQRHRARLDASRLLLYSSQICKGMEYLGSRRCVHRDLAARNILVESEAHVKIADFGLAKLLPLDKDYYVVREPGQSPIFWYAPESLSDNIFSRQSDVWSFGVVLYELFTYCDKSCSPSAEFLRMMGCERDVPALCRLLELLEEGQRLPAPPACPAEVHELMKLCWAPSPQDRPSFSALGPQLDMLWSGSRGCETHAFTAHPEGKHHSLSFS
Procedure: as §1, §2, §3, §4

Tyk2 = Tyk2 (Homo sapiens (Human), UniProt P29597); experiment: Biochemical JAK kinase assay (LanthaScreen), Tyk2; conditions: converted from pIC50 using Cheng-Prusoff; ATP 10 μM
Tyk2, sequence (P29597 whole entry): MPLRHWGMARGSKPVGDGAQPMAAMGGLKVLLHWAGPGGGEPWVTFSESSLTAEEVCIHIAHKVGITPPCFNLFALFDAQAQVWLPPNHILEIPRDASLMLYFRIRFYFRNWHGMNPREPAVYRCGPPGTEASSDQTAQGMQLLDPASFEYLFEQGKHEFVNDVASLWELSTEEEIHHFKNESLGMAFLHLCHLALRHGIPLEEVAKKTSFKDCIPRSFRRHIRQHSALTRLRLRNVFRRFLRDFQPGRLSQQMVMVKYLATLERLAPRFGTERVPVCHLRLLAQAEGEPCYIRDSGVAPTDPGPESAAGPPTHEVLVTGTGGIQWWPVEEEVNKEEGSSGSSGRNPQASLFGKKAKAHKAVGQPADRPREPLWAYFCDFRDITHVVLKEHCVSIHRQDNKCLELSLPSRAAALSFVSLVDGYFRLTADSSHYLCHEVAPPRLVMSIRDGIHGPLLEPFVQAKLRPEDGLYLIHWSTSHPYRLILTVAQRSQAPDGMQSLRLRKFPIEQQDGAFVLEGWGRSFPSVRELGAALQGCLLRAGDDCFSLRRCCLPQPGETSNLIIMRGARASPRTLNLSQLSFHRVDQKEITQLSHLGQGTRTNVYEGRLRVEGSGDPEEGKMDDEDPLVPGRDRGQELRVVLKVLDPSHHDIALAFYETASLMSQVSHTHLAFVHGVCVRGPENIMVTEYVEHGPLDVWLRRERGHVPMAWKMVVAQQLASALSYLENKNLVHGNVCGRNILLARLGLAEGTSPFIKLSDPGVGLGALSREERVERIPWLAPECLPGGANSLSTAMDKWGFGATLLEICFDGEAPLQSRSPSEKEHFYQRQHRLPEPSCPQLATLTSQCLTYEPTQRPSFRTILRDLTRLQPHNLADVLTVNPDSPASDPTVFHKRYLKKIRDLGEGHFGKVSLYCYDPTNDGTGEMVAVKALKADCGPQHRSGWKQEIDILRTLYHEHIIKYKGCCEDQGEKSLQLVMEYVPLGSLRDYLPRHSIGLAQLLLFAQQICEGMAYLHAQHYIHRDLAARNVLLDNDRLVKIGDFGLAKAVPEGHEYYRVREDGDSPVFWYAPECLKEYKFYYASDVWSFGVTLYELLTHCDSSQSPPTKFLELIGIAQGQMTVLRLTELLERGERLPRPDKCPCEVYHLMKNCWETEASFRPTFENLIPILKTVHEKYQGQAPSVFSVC
Procedure: as §1, §2, §3, §4

[1] = tested on: IL-2 stimulated STAT5 phosphorylation in Tall-1 human T cell line; experiment: Inhibition of IL-2 stimulated pSTAT5 in Tall-1 T cells; type: cell-based
Procedure: Assay 2: Inhibition of IL-2 Stimulated pSTAT5 in Tall-1 T Cells
The potency of test compounds for inhibition of interleukin-2 (IL-2) stimulated STAT5 phosphorylation was measured in the Tall-1 human T cell line (DSMZ) using AlphaLisa.
Phosphorylated STAT5 was measured via the AlphaLISA SureFire Ultra pSTAT5 (Tyr694/699) kit (PerkinElmer).
Compounds were serially diluted in DMSO and dispensed acoustically to empty wells. Assay media (phenol red-free DMEM (Life Technologies) supplemented with 10% FBS (ATCC)) was dispensed (4 μL/well) and plates shaken at 900 rpm for 10 mins. Cells were seeded at 45,000 cells/well in assay media (4 μL/well), and incubated at 37° C., 5% CO2 for 1 hour, followed by the addition of IL-2 (R&D Systems; final concentration 300 ng/mL) in pre-warmed assay media (4 μL) for 30 minutes. […] The lysate was shaken at 900 rpm for 10 minutes at room temperature (RT). Phosphorylated STAT5 was measured via the pSTAT5 AlphaLisa kit (PerkinElmer). Freshly prepared acceptor bead mixture was dispensed onto lysate (5 μL) under green filtered <100 lux light. Plates were shaken at 900 rpm for 2 mins, briefly spun down, and incubated for 2 hrs at RT in the dark. Donor beads were dispensed (5 μL) under green filtered <100 lux light. Plates were shaken at 900 rpm for 2 minutes, briefly spun down, and incubated overnight at RT in the dark. Luminescence was measured with excitation at 689 nm and emission at 570 nm using an EnVision plate reader (PerkinElmer) under green filtered <100 lux light.
To determine the inhibitory potency of test compounds in response to IL-2, the average emission intensity of beads bound to pSTAT5 was measured in a human T cell line. IC50 values were determined from analysis of the inhibition curves of signal intensity versus compound concentration. Data are expressed as pIC50 (negative decadic logarithm IC50) values (mean±standard deviation).

[2] = Lung and plasma exposure in mice after oral aspiration; type: in vivo; conditions: mouse, other: oral aspiration, 50 µg/animal; for Kp at 5 h: Balb/c, lung and plasma, lung ng/g to plasma ng/mL, mice, read-out: Lung to Plasma ratio at 5 hr; for concentration at 5 h: Balb/c mice, 1 mg/mL, 50 μL via oral aspiration
Procedure: Adult Balb/c mice from Harlan were used in the assay. […] Animals were placed in lateral recumbency post dose and monitored for full recovery from anesthesia before being returned to their home cage. Four hours later, animals were once again briefly anesthetized and challenged with either vehicle or IL-13 (0.03 μg total dose delivered, 50 μL total volume) via oral aspiration before being monitored for recovery from anesthesia and returned to their home cage. One hour after vehicle or IL-13 administration, whole blood and lungs were collected for both pSTAT6 detection in lung homogenates using a Perkin Elmer AlphaLISA® SureFire® Ultra™ HVp-STAT6 (Tyr641) assay kit and for total drug concentration analysis in both lung and plasma. Blood samples were centrifuged (Eppendorf centrifuge, 5804R) for 4 minutes at approximately 12,000 rpm at 4° C. to collect plasma. […] Plasma and lung levels of test compound were determined by LC-MS analysis against analytical standards constructed into a standard curve in the test matrix. A lung to plasma ratio was determined as the ratio of the lung concentration in ng/g to the plasma concentration in ng/mL at 5 hours.

[3] = tested on: TSLP-evoked TARC release in human peripheral blood mononuclear cells; experiment: Inhibition of TSLP-evoked TARC release in human peripheral blood mononuclear cells; type: cell-based; conditions: Homo sapiens, PBMC, 48 h, read-out: pIC50 ± st. dev., inhibition of TSLP-evoked TARC release (converted)
Text: Assay 4: Inhibition of TSLP-Evoked TARC Release in Human Peripheral Blood Mononuclear Cells
Thymic stromal lymphopoietin (TSLP) and thymus and activation-regulated chemokine (TARC) are overexpressed in asthmatic airways, and correlate with disease severity. In the lungs, TSLP may be released by bronchial epithelial cells in response to allergens and viral infections. TSLP signals through an IL-7Rα/TSLPR heterodimer found in a broad range of tissues and cell types, including epithelial cells, endothelial cells, neutrophils, macrophages, and mast cells. The binding of TSLP to its receptor induces a conformational change that activates JAK1 and JAK2 to phosphorylate various transcription factors, including STAT3 and STAT5. In immune cells, this triggers a cascade of intracellular events that result in cell proliferation, anti-apoptosis, dendritic cell migration, and production of Th2 cytokines and chemokines. In peripheral blood mononuclear cells (PBMC), TSLP has a proinflammatory effect by activating myeloid dendritic cells to attract and stimulate T cells, a process mediated by the chemoattractant TARC.
The potencies of the test compounds were measured for inhibition of TARC release.
PBMC aliquots (previously isolated from whole blood and frozen in aliquots at −80° C.) from 3 to 5 donors were thawed at 37° C. and added dropwise to 40 mL pre-warmed, sterile-filtered, complete RPMI media in 50 mL Falcon tubes. Cells were pelleted and resuspended in complete media at 2.24×10^6 cells/mL. […] Cells were allowed to rest for 1 hour at 37° C. with 5% CO2.
Compounds were received as 10 mM stock solutions in DMSO. 3.7-fold serial dilutions were performed to generate 9 concentrations of test compound in DMSO at 300× the final assay test concentration. […] 95 μL of 0.2% DMSO in complete media was added to the untreated control wells. Cells were pre-treated with compound for 1 hour at 37° C. with 5% CO2 prior to stimulation.
Immediately prior to use, an aliquot was thawed and prepared at 20× the final assay concentration in complete media. 10 μL of 20×TSLP was added to each well of PBMC, for a final assay concentration of 10 ng/mL. 10 μL of complete media was added to the unstimulated control wells. Cells were stimulated in the presence of compound for 48 hours at 37° C. with 5% CO2.
Following stimulation, the cell culture supernatants were harvested and TARC levels were detected by enzyme-linked immunosorbent assay (ELISA), using Human CCL17/TARC Quantikine ELISA Kit (R&D Systems # DDN00) according to the manufacturer's instructions.
For dose response analysis, the log [test compound (M)] was plotted versus the percent response values for each donor, and IC50 values were determined using a nonlinear regression analysis with GraphPad Prism Software using the 4-parameter sigmoidal dose-response algorithm with variable slope. Data are expressed as mean pIC50 (negative decadic logarithm IC50) values calculated from pIC50 values of individual donors and rounded to one decimal place.

[4] = IL-2 300 ng/mL, pSTAT5 AlphaLisa, Tall-1 cells, read-out: Tall-1 pIC50 (converted)
[5] = lung, read-out: Lung Concentration (ng/g) at 5 hr
[6] = plasma, read-out: Plasma Concentration (ng/mL) at 5 hr
[7] = TALL-1, read-out: Tall-1 pIC50 (converted)

JAK1, sequence (P23458 whole entry): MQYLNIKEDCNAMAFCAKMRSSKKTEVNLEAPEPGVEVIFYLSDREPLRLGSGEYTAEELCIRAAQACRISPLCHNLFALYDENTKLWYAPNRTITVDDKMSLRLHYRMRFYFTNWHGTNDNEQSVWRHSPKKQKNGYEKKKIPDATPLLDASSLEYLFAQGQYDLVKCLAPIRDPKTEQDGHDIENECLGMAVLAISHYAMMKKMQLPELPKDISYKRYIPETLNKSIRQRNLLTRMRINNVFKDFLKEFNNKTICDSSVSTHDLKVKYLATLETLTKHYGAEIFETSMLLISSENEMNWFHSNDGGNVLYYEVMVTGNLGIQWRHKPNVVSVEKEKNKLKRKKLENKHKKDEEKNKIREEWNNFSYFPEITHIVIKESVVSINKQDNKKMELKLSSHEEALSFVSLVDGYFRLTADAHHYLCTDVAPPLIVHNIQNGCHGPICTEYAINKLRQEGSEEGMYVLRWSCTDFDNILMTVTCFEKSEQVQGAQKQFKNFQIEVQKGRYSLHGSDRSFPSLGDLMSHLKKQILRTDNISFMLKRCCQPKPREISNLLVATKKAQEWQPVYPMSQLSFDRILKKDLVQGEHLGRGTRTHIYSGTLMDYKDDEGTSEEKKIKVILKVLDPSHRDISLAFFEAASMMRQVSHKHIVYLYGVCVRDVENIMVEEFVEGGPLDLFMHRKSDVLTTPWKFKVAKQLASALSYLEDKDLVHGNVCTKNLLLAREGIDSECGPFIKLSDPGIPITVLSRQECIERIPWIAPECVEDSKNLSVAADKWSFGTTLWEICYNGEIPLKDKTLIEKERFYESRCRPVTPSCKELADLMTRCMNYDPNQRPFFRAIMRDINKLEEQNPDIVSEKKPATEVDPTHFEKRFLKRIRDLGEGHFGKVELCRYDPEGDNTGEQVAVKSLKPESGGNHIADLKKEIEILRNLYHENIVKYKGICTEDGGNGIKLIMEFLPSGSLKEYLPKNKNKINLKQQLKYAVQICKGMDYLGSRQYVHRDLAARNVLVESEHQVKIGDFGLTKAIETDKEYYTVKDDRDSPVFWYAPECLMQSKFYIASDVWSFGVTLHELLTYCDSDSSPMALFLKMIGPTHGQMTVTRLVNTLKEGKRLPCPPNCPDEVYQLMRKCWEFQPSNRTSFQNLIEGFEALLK

SMILES	JAK1 pKi (JAK1)	JAK2 pKi (JAK2)	JAK3 pKi (JAK3)	Tyk2 pKi (Tyk2)	IC50 [1, 4]	Kp at 5 h [2]	concentration at 5 h [2, 5]	concentration at 5 h [2, 6]	IC50 [1, 7]	IC50 [3]
CCCN1Cc2[nH]c(-c3n[nH]c4cc(-c5ccc(O)cc5CC)ccc34)nc2C[C@H]1C(=O)N1CC(N(C)C)C1 [Example 12, (S)-(3-(dimethylamino)azetidin-1-yl)(2-(6-(2-ethyl-4-hydroxyphenyl)-1H-indazol-3-yl)-5-propyl-4,5,6,7-tetrahydro-3H-imidazo[4,5-c]pyridin-6-yl)methan One]	10.5	10.6	10.3	9.0	2 nM	281	6940 ± 4250 ng/g	25 ± 9 ng/mL		
CCCN1Cc2[nH]c(-c3n[nH]c4cc(-c5ccc(O)cc5CC)ccc34)nc2C[C@H]1C(=O)N1CC(C)(N(C)C)C1 [Example 13, (S)-(3-(dimethylamino)-3-methylazetidin-1-yl)(2-(6-(2-ethyl-4-hydroxyphenyl)-1H-indazol-3-yl)-5-propyl-4,5,6,7-tetrahydro-3H-imidazo[4,5-c]pyridin-6-yl)methan One]	10.3	10.5	9.8	9.0	2.51 nM	330	7460 ± 3080 ng/g	23 ± 2.5 ng/mL		
CCc1cc(O)ccc1-c1ccc2c(-c3nc4c([nH]3)CN(C(C)C)[C@H](C(=O)N3CC(C)(N(C)C)C3)C4)n[nH]c2c1 [Example 11, (S)-(3-(dimethylamino)-3-methylazetidin-1-yl)(2-(6-(2-ethyl-4-hydroxyphenyl)-1H-indazol-3-yl)-5-isopropyl-4,5,6,7-tetrahydro-3H-imidazo[4,5-c]pyridin-6-yl)methan One]	10.0	10.8	9.9	9.1	2 nM	271	15000 ± 3350 ng/g	55 ± 21 ng/mL		
CCc1cc(O)ccc1-c1ccc2c(-c3nc4c([nH]3)CN(C(C)C)[C@H](C(=O)N3CC[C@H](N(C)C)C3)C4)n[nH]c2c1 [Example 6, ((S)-3-(dimethylamino)pyrrolidin-1-yl)((S)-2-(6-(2-ethyl-4-hydroxyphenyl)-1H-indazol-3-yl)-5-isopropyl-4,5,6,7-tetrahydro-3H-imidazo[4,5-c]pyridin-6-yl)methan One]									2 nM	158 nM
CCc1cc(O)ccc1-c1ccc2c(-c3nc4c([nH]3)CN(CC)[C@H](C(=O)N3CC(N(C)C)C3)C4)n[nH]c2c1 [Example 9, (S)-(3-(dimethylamino)azetidin-1-yl)(5-ethyl-2-(6-(2-ethyl-4-hydroxyphenyl)-1H-indazol-3-yl)-4,5,6,7-tetrahydro-3H-imidazo[4,5-c]pyridin-6-yl)methanone]	10.3	10.7	10.3	9.2	2 nM	339	7750 ± 1650 ng/g	23 ± 6 ng/mL		
CCc1cc(O)ccc1-c1ccc2c(-c3nc4c([nH]3)CN(C(C)C)[C@H](C(=O)N3CCCN(C)CC3)C4)n[nH]c2c1 [Example 4, (S)-(2-(6-(2-ethyl-4-hydroxyphenyl)-1H-indazol-3-yl)-5-isopropyl-4,5,6,7-tetrahydro-3H-imidazo[4,5-c]pyridin-6-yl)(4-methyl-1,4-diazepan-1-yl)methanone]									2.51 nM	158 nM
CCc1cc(O)ccc1-c1ccc2c(-c3nc4c([nH]3)CN(CC)[C@H](C(=O)N3CC(C)(N(C)C)C3)C4)n[nH]c2c1 [Example 10, (S)-(3-(dimethylamino)-3-methylazetidin-1-yl)(5-ethyl-2-(6-(2-ethyl-4-hydroxyphenyl)-1H-indazol-3-yl)-4,5,6,7-tetrahydro-3H-imidazo[4,5-c]pyridin-6-yl)methan One]	10.4	10.6	10.2	9.1	2.51 nM	216	5130 ± 2200 ng/g	24 ± 6 ng/mL		

Source: patent US10844057B2, “Process for preparing JAK inhibitors and intermediates thereof” (priority 2018, dated 2020)
